{
  "source": "ChEMBL document CHEMBL1150990",
  "about": "“Studies of the inactivation of general acyl-coa dehydrogenase by (1R)- and (1S)-(methylenecyclopropyl)acetyl-coa” (Bioorg Med Chem Lett, 1992)",
  "key": {"[1]": {"experiment": "Inactivation of general acyl-CoA dehydrogenase by the compound was determined and expressed as kinact"}, "[2]": {"experiment": "Partition ratio of the inactivation of general acyl-CoA dehydrogenase by the compound was determined"}},
  "data": [
    {"molecule": "C=C1C[C@@H]1CC(=O)SCCNC(=O)CCNC(=O)[C@H](O)C(C)(C)COP(=O)(O)OP(=O)(O)OC[C@H]1O[C@@H](n2cnc3c(N)ncnc32)[C@H](O)[C@@H]1OP(=O)(O)O", "values": [
      {"measurement": "K inact", "setting": "[1]", "result": 0.0173, "unit": "s⁻¹"},
      {"measurement": "Ratio", "setting": "[2]", "result": 3.4}
    ]},
    {"molecule": "C=C1C[C@H]1CC(=O)SCCNC(=O)CCNC(=O)[C@H](O)C(C)(C)COP(=O)(O)OP(=O)(O)OC[C@H]1O[C@@H](n2cnc3c(N)ncnc32)[C@H](O)[C@@H]1OP(=O)(O)O", "values": [
      {"measurement": "K inact", "setting": "[1]", "result": 0.0163, "unit": "s⁻¹"},
      {"measurement": "Ratio", "setting": "[2]", "result": 4}
    ]}
  ]
}
